Measured values reported in ChEMBL document CHEMBL1201862, “PubChem BioAssay data set” (2004).
Calls of active or inactive are those of the source. For most assays here, no stated cut-off is given here; in the data, actives have a measured IC50 and inactives only a lower limit.

Columns and labels:
[1] = target: Nucleotide-binding oligomerization domain-containing protein 2 (Homo sapiens, UniProt Q9HC29); assay: PubChem AID 2334; assay type: functional
Tumor necrosis factor = Tumor necrosis factor (Homo sapiens, UniProt P01375); assay: TNFa-triggered NF-kB activation inhibitors, SAR follow-up, cell-based, revised (AID 2337); assay type: functional
HEK293 = assay: cells; conditions: Homo sapiens;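 further: cells exposed to compound for 14 hours overnight before viability readout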
[2] = target: T1, Nucleotide-binding oligomerization domain-containing protein 1 (Homo sapiens, UniProt Q9Y239); assay: NOD1 signaling inhibitors, SAR follow-up, revised (AID 2333); assay type: functional
T1 sequence (Q9Y239 whole entry): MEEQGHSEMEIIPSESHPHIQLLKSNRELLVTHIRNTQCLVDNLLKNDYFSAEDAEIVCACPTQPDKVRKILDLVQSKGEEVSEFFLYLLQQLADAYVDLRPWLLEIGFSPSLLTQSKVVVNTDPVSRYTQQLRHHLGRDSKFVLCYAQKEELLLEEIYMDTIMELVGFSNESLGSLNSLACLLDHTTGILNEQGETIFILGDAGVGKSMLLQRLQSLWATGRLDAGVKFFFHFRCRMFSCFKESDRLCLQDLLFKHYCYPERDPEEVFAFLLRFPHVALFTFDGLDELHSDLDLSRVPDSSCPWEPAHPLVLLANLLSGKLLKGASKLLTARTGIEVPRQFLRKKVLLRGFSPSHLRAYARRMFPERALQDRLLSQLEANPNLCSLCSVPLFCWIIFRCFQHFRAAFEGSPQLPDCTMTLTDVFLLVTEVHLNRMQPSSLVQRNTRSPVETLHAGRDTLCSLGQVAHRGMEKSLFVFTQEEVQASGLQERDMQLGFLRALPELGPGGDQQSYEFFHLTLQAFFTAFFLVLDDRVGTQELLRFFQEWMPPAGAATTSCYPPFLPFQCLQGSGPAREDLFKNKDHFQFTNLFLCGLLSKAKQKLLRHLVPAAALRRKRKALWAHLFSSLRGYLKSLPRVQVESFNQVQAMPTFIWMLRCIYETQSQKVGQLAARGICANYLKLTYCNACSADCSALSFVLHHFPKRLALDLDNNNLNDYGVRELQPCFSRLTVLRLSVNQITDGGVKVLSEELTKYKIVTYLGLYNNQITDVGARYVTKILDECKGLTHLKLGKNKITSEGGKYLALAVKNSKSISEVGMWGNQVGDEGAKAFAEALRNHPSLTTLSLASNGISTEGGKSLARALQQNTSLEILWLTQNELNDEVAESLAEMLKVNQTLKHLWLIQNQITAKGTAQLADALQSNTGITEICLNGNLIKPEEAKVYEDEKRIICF

[3] = target: T2, Tyrosine-protein phosphatase non-receptor type 7 (Homo sapiens, UniProt P35236); assay: redox-dependent HePTP inhibition, mechanism study, biochemical, fluorescence (AID 2068); assay type: functional
T2 sequence (P35236 whole entry): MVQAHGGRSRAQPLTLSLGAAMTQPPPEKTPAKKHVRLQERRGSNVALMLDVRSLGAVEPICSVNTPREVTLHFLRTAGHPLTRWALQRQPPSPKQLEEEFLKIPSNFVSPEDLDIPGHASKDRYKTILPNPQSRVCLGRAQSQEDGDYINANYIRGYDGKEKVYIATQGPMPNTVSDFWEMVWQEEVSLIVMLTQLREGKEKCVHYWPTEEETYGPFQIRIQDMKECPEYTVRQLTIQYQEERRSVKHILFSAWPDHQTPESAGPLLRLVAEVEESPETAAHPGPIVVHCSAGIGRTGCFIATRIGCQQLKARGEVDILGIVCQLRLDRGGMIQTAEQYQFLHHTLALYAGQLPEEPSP

CAAX prenyl protease 2 = CAAX prenyl protease 2 (Saccharomyces cerevisiae S288c, UniProt Q03530); assay type: biochemical
Bcl-2-like protein 10 = target: T3, Bcl-2-like protein 10 (Homo sapiens, UniProt Q9HD36); assay: displacers of TR3 peptide from Bcl-B, primary screen, selectivity assay for Bfl-1 inhibitor project, biochemical, fluorescence polarization, FITC-TR3 peptide (AID 748);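 further: fluorescence polarization from a fluorescein-labelled TR3 peptide binding purified Bcl-B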
T3 sequence (Q9HD36 whole entry): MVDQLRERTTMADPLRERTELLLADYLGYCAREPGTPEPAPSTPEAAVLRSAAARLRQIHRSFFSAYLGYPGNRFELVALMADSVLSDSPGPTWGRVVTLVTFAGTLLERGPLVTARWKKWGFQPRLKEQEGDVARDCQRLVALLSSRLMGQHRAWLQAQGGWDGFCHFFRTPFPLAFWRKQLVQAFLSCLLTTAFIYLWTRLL

[4] = target: G-protein coupled receptor 55 (Homo sapiens, UniProt Q9Y2T6); assay: GPR55 antagonists blocking LPI-driven arrestin recruitment, primary screen, imaging, U2OS, beta-arrestin-GFP, LPI agonist (AID 2013); assay type: functional;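 further: antagonist potency measured as reduced agonist-driven arrestin aggregation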
Chain of G-protein coupled receptor 55 (Q9Y2T6 whole entry): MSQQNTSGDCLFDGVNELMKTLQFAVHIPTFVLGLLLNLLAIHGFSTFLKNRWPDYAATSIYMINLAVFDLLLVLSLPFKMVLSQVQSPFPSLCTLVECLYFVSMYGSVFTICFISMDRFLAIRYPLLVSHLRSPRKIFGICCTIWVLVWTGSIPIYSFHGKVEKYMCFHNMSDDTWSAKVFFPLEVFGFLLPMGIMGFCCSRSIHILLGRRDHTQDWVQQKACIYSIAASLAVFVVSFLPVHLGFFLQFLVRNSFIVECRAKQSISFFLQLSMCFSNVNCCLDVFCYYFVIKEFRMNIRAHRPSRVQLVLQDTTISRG

Chain of Tumor necrosis factor (P01375 whole entry): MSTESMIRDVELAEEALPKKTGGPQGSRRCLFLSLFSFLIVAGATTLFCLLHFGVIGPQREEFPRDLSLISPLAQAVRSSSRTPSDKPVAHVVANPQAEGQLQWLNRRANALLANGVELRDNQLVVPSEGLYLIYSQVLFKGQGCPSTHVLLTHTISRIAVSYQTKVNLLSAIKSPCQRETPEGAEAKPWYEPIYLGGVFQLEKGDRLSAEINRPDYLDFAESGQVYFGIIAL
Chain of Nucleotide-binding oligomerization domain-containing protein 2 (Q9HC29 whole entry, the tested form may be a part): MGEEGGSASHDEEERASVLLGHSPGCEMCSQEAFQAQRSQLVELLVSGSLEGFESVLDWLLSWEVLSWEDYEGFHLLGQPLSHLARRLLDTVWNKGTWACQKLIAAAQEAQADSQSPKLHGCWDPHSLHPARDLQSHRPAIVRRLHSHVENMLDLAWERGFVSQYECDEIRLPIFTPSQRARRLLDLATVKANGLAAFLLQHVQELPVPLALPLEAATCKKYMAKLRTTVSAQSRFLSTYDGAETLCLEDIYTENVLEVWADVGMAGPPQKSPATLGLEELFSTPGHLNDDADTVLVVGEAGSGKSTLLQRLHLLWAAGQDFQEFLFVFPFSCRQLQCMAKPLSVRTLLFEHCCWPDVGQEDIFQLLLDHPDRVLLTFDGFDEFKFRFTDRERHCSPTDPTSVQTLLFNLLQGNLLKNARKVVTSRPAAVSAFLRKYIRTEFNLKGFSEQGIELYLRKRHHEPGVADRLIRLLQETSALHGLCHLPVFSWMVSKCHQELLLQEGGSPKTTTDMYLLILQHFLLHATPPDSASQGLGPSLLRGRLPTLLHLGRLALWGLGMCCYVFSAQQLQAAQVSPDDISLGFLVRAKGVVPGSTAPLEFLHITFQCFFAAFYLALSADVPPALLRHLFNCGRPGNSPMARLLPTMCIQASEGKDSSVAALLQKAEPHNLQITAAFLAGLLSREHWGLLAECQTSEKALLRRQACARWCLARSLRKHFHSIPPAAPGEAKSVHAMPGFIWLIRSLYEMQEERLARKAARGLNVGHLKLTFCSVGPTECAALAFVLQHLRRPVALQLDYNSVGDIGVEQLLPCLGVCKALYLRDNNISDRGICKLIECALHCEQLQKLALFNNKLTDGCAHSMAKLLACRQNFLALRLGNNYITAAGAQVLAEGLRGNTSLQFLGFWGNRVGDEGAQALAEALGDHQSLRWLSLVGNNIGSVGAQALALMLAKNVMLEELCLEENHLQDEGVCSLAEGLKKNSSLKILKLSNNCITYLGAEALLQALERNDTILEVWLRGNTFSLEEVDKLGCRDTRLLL
Chain of CAAX prenyl protease 2 (Q03530 whole entry): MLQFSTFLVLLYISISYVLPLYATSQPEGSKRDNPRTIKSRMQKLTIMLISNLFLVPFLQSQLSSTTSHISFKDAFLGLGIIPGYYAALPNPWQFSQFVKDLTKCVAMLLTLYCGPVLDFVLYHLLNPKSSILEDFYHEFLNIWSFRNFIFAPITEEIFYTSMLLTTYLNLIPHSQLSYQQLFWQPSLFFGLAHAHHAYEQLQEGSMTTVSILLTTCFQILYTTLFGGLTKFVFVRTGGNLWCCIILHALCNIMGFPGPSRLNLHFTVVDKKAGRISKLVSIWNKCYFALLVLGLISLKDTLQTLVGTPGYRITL

In the case of `O=C(Nc1nc2ccccc2n1Cc1ccc(Cl)cc1)c1ccccc1`, the IC50 [1] is reported as > 20 µM (inactive), the IC50 (Tumor necrosis factor) is reported as > 20 µM (inactive) and the IC50 (HEK293) is reported as > 20 µM (inactive). The IC50 [2] was > 20 µM (inactive).
In the case of `O=C(Nc1ccccc1)Nc1ccc2nc(-c3ccco3)c(-c3ccco3)nc2c1`, the IC50 [3] is reported as 0.575 µM (active).
With `COc1ccc(-c2ccc3oc(-c4ccc(OC)cc4)c(-c4ccc(OC)cc4)c3c2)cc1` the AC50 (CAAX prenyl protease 2) was 18 µM (active).
For `O=S(=O)(c1ccccc1)N(CC(O)CN1CCCCC1)c1ccccc1` (stereo not drawn), the IC50 (Bcl-2-like protein 10) was > 100 µM (inactive).
`COC(=O)c1[nH]c2ccc(C)cc2c1NC(=O)CCN1CCN(Cc2ccc3c(c2)OCO3)CC1` was tested, and the IC50 (Bcl-2-like protein 10) was > 100 µM (inactive).
With `Cc1ccc2cccc(N=Cc3c(C)[nH]n(-c4ccccc4)c3=O)c2n1` the IC50 [1] was > 20 µM (inactive), the IC50 (Tumor necrosis factor) was > 20 µM (inactive) and the IC50 (HEK293) was > 20 µM (inactive). For the same compound, the IC50 [2] was > 20 µM (inactive).
For `C#CCOc1c(Br)cc(/C=N\NC(=O)CN2CCOCC2)cc1OCC`, the IC50 [4] was 3.59 µM (active).
